# Earlier results as cited in patent publication US20260191871A1, “USE OF ANTIVIRAL AGENTS, COMPOSITION OF MATTER, COMBINATION PREPARATIONS/AGENTS TO TREAT CHRONIC DISEASES ASSOCIATED WITH EPSTEIN-BARR VIRUS AND OTHER HUMAN HERPES VIRUSES” (EPIPHANY BIOSCIENCES, priority 2022, published 2026).
# Experiments:
# [1] = test system: human varicella zoster virus (VZV)
# [2] = test system: human herpesvirus-6 (HHV-6)
# [3] = compared with the other polymorphic forms (O'Neill et al. '456)
# [4] = human, multiple dosing, total daily doses of up to 6.0 g
# zoster = details: suspension at 250, 500 and 750 mg twice daily for 7 days, zoster patients, acyclovir as control
compound,measurement,setting,value
Nc1nc2c(ncn2C[C@H](CO)CCO)c(=O)[nH]1 [Formula H2G],activity against human varicella zoster virus (VZV),[1],potent activity
same,activity against Epstein-Barr virus (EBV),Epstein-Barr virus (EBV),potent activity
same,activity against human herpesvirus-6 (HHV-6),[2],potent activity
same,activity against HSV-1,HSV-1,potent activity
same,activity against HSV-2,HSV-2,potent activity
CCCCCCCCCCCCCCCCCC(=O)OC[C@H](CCOC(=O)[C@@H](N)C(C)C)Cn1cnc2c(=O)[nH]c(N)nc21 [Polymorph A],thermodynamic stability among polymorphs of valomaciclovir stearate,[3],thermodynamically the most stable polymorph
"CCCCCCCCCCCCCCCCCC(=O)OC[C@H](CCOC(=O)[C@@H](N)C(C)C)Cn1cnc2c(=O)nc(N)[nH]c21 [valomaciclovir stearate, [(2R)-4-[(2S)-2-amino-3-methylbutanoyl]oxy-2-[(2-amino-6-oxo-3H-purin-9-yl)methyl]butyl]octadecanoate]",safety and tolerability,[4],safe and well tolerated
same,zoster lesion healing,zoster,proof-of-concept for zoster lesion healing
same,replication of EBV,EBV,suppresses replication of EBV
same,impact on CMV,CMV,does not impact CMV
